Results: patent US6083964A, “Optical resolution of racemic aminoalkylpyridine anticonvulsants and (+) aminoalkylpyridine enantiomers as highly potent orally effective anticonvulsant drugs and excitatory amino acid antagonists” (K and K Biosciences, Inc., priority 1999, dated 2000)

Columns and labels:
hippocampal kindled rats = assay: Toxicity in hippocampal kindled rats, i.p.; type: in vivo; settings: 100 mg/kg i.p., 45 min
Protocol: The (+) AAP enantiomer, compound 1 in Table 1, was tested in the hippocampal kindled rat, by the i.p. route. […]

[1] = system: maximal electroshock seizure (MES) in rats; assay: Maximal electroshock seizure (MES) test, rats, p.o.; type: in vivo, rat (Sprague-Dawley); settings: rat, p.o.; for ED50: MES test; for P.I. (protective index, TD50/ED50): MES
Excerpt: The (+) AAP enantiomers obtained by optical resolution of racemic AAPs and the resulting highly orally effective anticonvulsant compositions of this invention are useful in the treatment of convulsive disorders. […] A series of (+) AAP enantiomers and (-) AAP enantiomers of this invention has been evaluated for anticonvulsant activity by the intraperitoneal (i.p.) and by the oral (p.o.) route using two standard seizure models in the mouse and in the rat, the maximal electroshock seizure (MES) test and the subcutaneous pentylenetetrazol (Metrazole) seizure threshold (scMet) test. […] The following Table 2 presents the results of these anticonvulsant tests with respect to several (+) and (-) AAP enantiomeric compounds derived from optical resolution of racemic AAPs of the present invention. This Table 2 identifies the specific compounds tested by their chemical name and provides the test model, the route of administration, the animal species used, and the anticonvulsant activity and toxicity in terms of ED50 and TD50 values, (the median effective and toxic dose respectively), when intraperitoneally administered to mice, and when orally administered to rats. The Maximal Electroshock Seizure Test (MES): Maximal electroshock seizures are elicited with a 60 Hz alternating current of 50 mA intensity in mice and about 150 mA intensity in rats (5-7 times that necessary to elicit minimal electroshock seizures), delivered for 0.2 sec via corneal electrodes. A drop of 0.9% saline is instilled in the eye prior to application of the electrodes in order to […]. Abolition of the hind limb tonic extension component of the seizure is defined as protection and results are expressed as number of animals protected/number of animals tested. The Subcutaneous Pentylenetetrazol (Metrazole) Seizure Threshold Test (scMet): A 0.5% solution of 85 mg/kg of pentylenetetrazol is administered subcutaneously in the posterior midline 30 minutes or 4 hours after drug administration to the animal. […] This species will be the subject of the complete anticonvulsant quantification test evaluation as described above, but after oral (gavage) administration of the candidate compound.

[2] = Neurotoxicity, rotorod ataxia test, mice, i.p.; parameters: species or system mouse (male Carworth Farms #1); settings: mouse, in vivo, ip, TD50
Protocol: (§1) Neurotoxicity is determined by the rotorod ataxia test in mice and by the positional sense test and gait and stance test in the rat. The following Table 2 presents the results of these anticonvulsant tests with respect to several (+) and (-) AAP enantiomeric compounds derived from optical resolution of racemic AAPs of the present invention. This Table 2 identifies the specific compounds tested by their chemical name and provides the test model, the route of administration, the animal species used, and the anticonvulsant activity and toxicity in terms of ED50 and TD50 values, (the median effective and toxic dose respectively), when intraperitoneally administered to mice, and when orally administered to rats. In mice, i.p.: All compounds are emulsified in 0.5% methylcellulose. The solvent has been tested for anticonvulsant and toxic effects and found to introduce no significant bias into the testing of anticonvulsant activity. The compounds are administered intraperitoneally in a volume of 0.01 ml/gm to male Carworth Farms #1 mice weighing about 20 gm. All compounds are tested at least at three dose levels (30, 100 and 300 mg/kg) at 30 minutes and 4 hours after their administration. Neurotoxicity is evaluated in mice by the rotorod ataxia test. The animal is placed on a wooden rod of 1 and 1/8 diameter rotating at 6 rpm. Normal mice can remain on a rod rotating at this speed indefinitely. […] Anticonvulsant Quantification in Mice i.p.: The ED50 values are determined in the MES, scMet and rotorod ataxia test. To determine the ED50 values, five logarithmically spaced doses of the test compound are administered to animals (male Carworth Farms #1 mice) in groups of eight, to cover 0-100% protection, and the dose required to protect 50% of the animals (ED50) together with its 95% confidence limits, is determined graphically.

[3] = Neurological deficit, positional sense test and gait and stance test, rats, p.o.; parameters: species or system rat (Sprague-Dawley); settings: rat, in vivo, po
Protocol: (§2) Neurotoxicity is determined by the rotorod ataxia test in mice and by the positional sense test and gait and stance test in the rat. The following Table 2 presents the results of these anticonvulsant tests with respect to several (+) and (-) AAP enantiomeric compounds derived from optical resolution of racemic AAPs of the present invention. This Table 2 identifies the specific compounds tested by their chemical name and provides the test model, the route of administration, the animal species used, and the anticonvulsant activity and toxicity in terms of ED50 and TD50 values, (the median effective and toxic dose respectively), when intraperitoneally administered to mice, and when orally administered to rats. […] This species will be the subject of the complete anticonvulsant quantification test evaluation as described above, but after oral (gavage) administration of the candidate compound. […] Neurological deficit in rats is examined by the positional sense test and gait and stance test. […] Inability to do so rapidly indicates a neurologic deficit. In the gait and stance test, a neurologic deficit is indicated by a circular or a zigzag gait, ataxia, abnormal spread of the legs, abnormal body posture, tremor, hyperactivity, lack of exploratory behavior, somnolence, stupor, or catalepsy.

[4] = system: neurotoxicity (rotorod ataxia) in mice; assay: Neurotoxicity, rotorod ataxia test, mice, i.p.; parameters: species or system mouse (male Carworth Farms #1); settings: mouse, in vivo, ip
Protocol: as §1

[5] = system: neurological deficit in rats; assay: Neurological deficit, positional sense test and gait and stance test, rats, p.o.; parameters: species or system rat (Sprague-Dawley); settings: rat, in vivo, po
Protocol: as §2

Structure (SMILES) | toxic (number of animals) (hippocampal kindled rats) | ED50 ([1]; listed as (1) (+) Enantiomer) | P.I. (protective index, TD50/ED50) ([1]; listed as (1) (+) Enantiomer) | TD50 [2] | TD50 [3] | ED50 ([1]; listed as (1) (-) Enantiomer) | P.I. (protective index, TD50/ED50) ([1]; listed as (1) (-) Enantiomer) | TD50 [4] | TD50 [5]
CC(Nc1ccc(Cl)cc1)c1ccncc1 (single isomer, unassigned; (+)) [Compound 1, (+) N-(4-Chlorophenyl)-1-(4-pyridyl)ethylamine] | 2/7 | 10.2 mg/kg | > 49.1 | 149 mg/kg | > 500 mg/kg |  |  |  | 
CC(Nc1ccc(Cl)cc1)c1ccncc1 (single isomer, unassigned; (-)) [Compound 2, (-) N-(4-Chlorophenyl)-1-(4-pyridyl)ethylamine] |  |  |  |  |  | 25.8 mg/kg | > 19.4 | 219.4 mg/kg | > 500.0 mg/kg
